Experimental findings from patent publication US20070111265A1, “Ligands for mineralocorticoid receptor (MR) and methods for screening for or designing MR ligands” (Van Andel Research Institute, priority 2005, published 2007) are described below.

“Also recorded” adds a separate entry of the source. Where two headings read alike, the source gives them in different places.

In one experiment the target is T1, MR L848Q/S843P (Homo sapiens, UniProt P08235, L848Q/S843P).
T1 construct: (S843P and L848Q) within the context of the full length wild type receptor; expressed in transfected cells; host or cells: Cos-7
T1 sequence (P08235 1-984 S843P/L848Q): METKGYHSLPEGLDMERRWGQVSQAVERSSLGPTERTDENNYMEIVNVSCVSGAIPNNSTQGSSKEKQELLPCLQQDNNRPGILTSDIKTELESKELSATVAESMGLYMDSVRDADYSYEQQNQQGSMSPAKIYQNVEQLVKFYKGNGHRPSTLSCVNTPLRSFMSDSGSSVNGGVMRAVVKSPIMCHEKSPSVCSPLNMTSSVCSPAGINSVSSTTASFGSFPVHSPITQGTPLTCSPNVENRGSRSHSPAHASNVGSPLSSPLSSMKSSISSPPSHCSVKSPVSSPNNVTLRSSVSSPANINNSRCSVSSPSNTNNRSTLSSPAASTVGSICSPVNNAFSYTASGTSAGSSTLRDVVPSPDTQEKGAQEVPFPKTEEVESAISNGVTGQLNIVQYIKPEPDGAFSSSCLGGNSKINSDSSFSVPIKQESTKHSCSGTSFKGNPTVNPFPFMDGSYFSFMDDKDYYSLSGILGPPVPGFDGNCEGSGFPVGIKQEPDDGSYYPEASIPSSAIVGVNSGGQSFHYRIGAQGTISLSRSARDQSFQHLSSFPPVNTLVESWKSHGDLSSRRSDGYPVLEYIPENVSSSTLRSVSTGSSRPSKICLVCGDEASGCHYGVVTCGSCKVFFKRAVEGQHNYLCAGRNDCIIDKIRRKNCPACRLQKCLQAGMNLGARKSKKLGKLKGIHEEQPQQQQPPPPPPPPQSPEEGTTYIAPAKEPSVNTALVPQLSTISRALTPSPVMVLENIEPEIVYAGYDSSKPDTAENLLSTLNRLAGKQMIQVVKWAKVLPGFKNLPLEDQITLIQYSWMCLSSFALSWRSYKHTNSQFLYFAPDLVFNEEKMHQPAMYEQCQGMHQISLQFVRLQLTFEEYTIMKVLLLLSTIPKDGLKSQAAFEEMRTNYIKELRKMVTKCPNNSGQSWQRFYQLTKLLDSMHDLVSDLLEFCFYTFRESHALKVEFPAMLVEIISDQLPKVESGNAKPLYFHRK
Put plainly: MMTV luciferase reporter assay in Cos-7 cells. Particulars: double mutation. It is filed as cell-based. On the procedure: (§1) Cos-7 cells were maintained in DMEM containing 10% fetal bovine serum (FBS) and were transiently transfected using Lipofectamine 2000 (Invitrogen). […] Cells were transfected in Opti-MEM with 400 ng of MMTV-Luc reporter plasmid and 400 ng of receptor expression vector (pRS vector) encoding full-length GR and MR respectively (ATCC). […] Luciferase data were normalized to Renilla activity as an internal control.
(§2) To validate the role of the key MR pocket residues in hormone recognition, the inventors mutated S843 and L848 to the corresponding GR residues (S843P and L848Q) within the context of the full length wild type receptor. […] We also performed reverse mutations in the full length GR receptor (P637S and Q642L) and tested them in the same MMTV reporter.
(In general: In a reporter assay the amount or activity of a reporter protein is the signal.)

Experiment [1] deals with T2, wild type GR (full-length) (Homo sapiens, UniProt P04150).
T2 sequence (P04150 1-777): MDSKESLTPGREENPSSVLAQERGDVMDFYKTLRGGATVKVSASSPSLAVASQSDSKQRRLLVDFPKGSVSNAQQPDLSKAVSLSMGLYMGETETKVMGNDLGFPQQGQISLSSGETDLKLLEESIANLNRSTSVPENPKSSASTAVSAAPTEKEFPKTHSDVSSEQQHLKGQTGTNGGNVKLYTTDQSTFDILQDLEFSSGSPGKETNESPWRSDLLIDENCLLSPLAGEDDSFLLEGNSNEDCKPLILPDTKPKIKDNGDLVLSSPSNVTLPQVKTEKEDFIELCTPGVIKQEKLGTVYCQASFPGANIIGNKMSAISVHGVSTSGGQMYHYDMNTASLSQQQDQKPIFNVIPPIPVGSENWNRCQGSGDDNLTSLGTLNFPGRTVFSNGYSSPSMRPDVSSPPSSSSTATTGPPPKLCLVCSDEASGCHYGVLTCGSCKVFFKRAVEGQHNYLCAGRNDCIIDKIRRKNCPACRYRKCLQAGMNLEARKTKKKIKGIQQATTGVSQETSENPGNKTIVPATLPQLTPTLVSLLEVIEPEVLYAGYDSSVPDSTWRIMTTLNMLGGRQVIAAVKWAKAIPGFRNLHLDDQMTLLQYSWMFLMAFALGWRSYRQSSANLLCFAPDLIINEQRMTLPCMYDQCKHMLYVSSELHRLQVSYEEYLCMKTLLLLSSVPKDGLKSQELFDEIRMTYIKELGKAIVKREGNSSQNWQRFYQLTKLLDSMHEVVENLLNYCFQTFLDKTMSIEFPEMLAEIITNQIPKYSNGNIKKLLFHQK
Briefly: MMTV luciferase reporter assay in Cos-7 cells. Type of experiment: cell-based. On the procedure:
as §1, §2

For the molecule `C[C@]12CCC(=O)C=C1CC[C@@H]1[C@@H]2[C@@H](O)C[C@@]2(C)[C@H]1CC[C@]2(O)C(=O)CO` [cortisol], the “activation of MR L848Q/S843P” value on MR L848Q/S843P is “totally abolished; also recorded: severely affects activation”.

As for `C[C@]12C[C@H](O)[C@H]3[C@@H](CCC4=CC(=O)CC[C@@]43C)[C@@H]1CC[C@@H]2C(=O)CO` [corticosterone], the EC50 in experiment [1] (Cos-7, MMTV-Luc, read-out: EC50, activation of wild type GR) is ~20 nM; in experiment [1] (summary of FIG. 5 dose-response, read-out: affinity to GR (shown in FIG. 5)) it was ~10 nM. For the same molecule, the “activation of MR L848Q/S843P” value on MR L848Q/S843P is on record as “totally abolished; also recorded: severely affects activation”.
